Reference: ChEMBL document CHEMBL1140105, “Synthesis of bivalent beta2-adrenergic and adenosine A1 receptor ligands” (J Med Chem, 2008)
Calls of active or inactive are those of the source. The rule behind the calls is not given here.

Tests used:
[1] = target: T1, Beta-2 adrenergic receptor (Mesocricetus auratus, UniProt P04274); experiment: Agonist activity at adrenergic beta2 receptor in Syrian hamster DDT1 MF2 cells assessed as stimulation of cAMP accumulation by radioimmunoassay in presence of 1 uM DPCPX; format: functional, cell-based
T1 sequence (P04274 whole entry): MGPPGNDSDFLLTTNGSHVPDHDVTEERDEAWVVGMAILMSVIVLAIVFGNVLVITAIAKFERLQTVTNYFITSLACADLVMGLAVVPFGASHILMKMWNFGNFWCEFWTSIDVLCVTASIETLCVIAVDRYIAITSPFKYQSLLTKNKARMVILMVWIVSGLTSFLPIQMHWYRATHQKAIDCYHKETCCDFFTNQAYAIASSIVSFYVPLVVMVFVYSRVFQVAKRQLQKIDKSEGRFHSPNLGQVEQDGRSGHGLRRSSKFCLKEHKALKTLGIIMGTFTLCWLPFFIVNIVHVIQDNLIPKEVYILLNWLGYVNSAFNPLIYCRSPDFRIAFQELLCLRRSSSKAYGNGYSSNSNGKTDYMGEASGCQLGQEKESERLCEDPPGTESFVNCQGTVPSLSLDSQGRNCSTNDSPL

[2] = target: Beta-2 adrenergic receptor (Mesocricetus auratus) (UniProt P04274); experiment: Displacement of [125I](-)-iodopindolol from adrenergic beta2 receptor in Syrian hamster DDT1 MF2 cells at 10 uM; format: cell-based
Chain of Beta-2 adrenergic receptor (Mesocricetus auratus) (P04274 whole entry, looked up): as the sequence (P04274 whole entry) above

[3] = target: T1, Beta-2 adrenergic receptor; experiment: Displacement of [125I](-)-iodopindolol from adrenergic beta2 receptor in Syrian hamster DDT1 MF2 cells; format: cell-based
[4] = Displacement of [3H]DPCPX from adenosine A1 receptor in Syrian hamster DDT1 MF2 cells; format: cell-based, Mesocricetus auratus
[5] = target: Beta-2 adrenergic receptor (Mesocricetus auratus) (UniProt P04274); experiment: Agonist activity at adrenergic beta2 receptor in Syrian hamster DDT1 MF2 cells assessed as stimulation of cAMP accumulation up to 100 uM by radioimmunoassay in presence of 1 uM DPCPX; format: functional, cell-based
[6] = target: Beta-2 adrenergic receptor (Mesocricetus auratus) (UniProt P04274); experiment: Agonist activity at adrenergic beta2 receptor in Syrian hamster DDT1 MF2 cells assessed as stimulation of cAMP accumulation by radioimmunoassay in presence of 1 uM DPCPX relative to (-)-isoproterenol; format: functional, cell-based

SMILES: Nc1cc(C(O)CNCCCCNc2ncnc3c2ncn3[C@@H]2O[C@H](CO)[C@@H](O)[C@H]2O)ccc1O (stereo not given in full)
- EC50 [1]: 1.09 µM

SMILES: Nc1cc(C(O)CNCCNc2ncnc3c2ncn3[C@@H]2O[C@H](CO)[C@@H](O)[C@H]2O)ccc1O (stereo not given in full)
- inhibition [2]: 20%
- Ki [3]: > 10 µM
- Ki [4]: 2.75 µM
- Activity [5]: inactive
- Activity [6]: 50%

SMILES: O=CNc1cc(C(O)CNCCNc2ncnc3c2ncn3[C@@H]2O[C@H](CO)[C@@H](O)[C@H]2O)ccc1O (stereo not given in full)
- inhibition [2]: 20%
- Ki [3]: > 10 µM
- Ki [4]: 1.98 µM
- Activity [5]: inactive
